Experimental data as given in PubChem BioAssay (NCI).
Where “and” joins values, the source holds several entries; their conditions need not be identical. Equal values may be shown once.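 Tested at 5 concentrations; 48 h exposure; 96-well plates; endpoints linearly interpolated, else capped at highest concentration. GI50 = concentration required for 50% inhibition of growth. TGI marks complete inhibition of growth.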 Where a SMILES comes first, the peptide text is derived from it. [ ]: non-standard residue; d: D form. The star is where a group is joined. Phe(4-NO2) = N[CH](Cc1ccc([N+](=O)[O-])cc1)C(=O)O; Boc = CC(C)(C)OC(=O)*

Tests used:
Experiment in all cases: NCI anticancer screen, dose series, 48 h
HOP-62 NSCLC = system: HOP-62 NSCLC
SK-OV-3 ovarian = system: SK-OV-3 ovarian
HT29 colon = system: HT29 colon
MCF7 breast = system: MCF7 breast
LOX IMVI melanoma = system: LOX IMVI melanoma
HCT-15 colon = system: HCT-15 colon
SNB-75 CNS = system: SNB-75 CNS
MDA-MB-435 = system: MDA-MB-435
EKVX NSCLC = system: EKVX NSCLC
MDA-N = system: MDA-N
PC-3 prostate = system: PC-3 prostate

Compound	TGI (HOP-62 NSCLC)	TGI (SK-OV-3 ovarian)	TGI (HT29 colon)	TGI (MCF7 breast)	TGI (LOX IMVI melanoma)	TGI (HCT-15 colon)	TGI (SNB-75 CNS)	TGI (MDA-MB-435)	TGI (EKVX NSCLC)	TGI (MDA-N)	TGI (PC-3 prostate)	GI50 (HT29 colon)	GI50 (MCF7 breast)	GI50 (LOX IMVI melanoma)	GI50 (HCT-15 colon)	GI50 (SNB-75 CNS)	GI50 (MDA-MB-435)	GI50 (EKVX NSCLC)	GI50 (MDA-N)	GI50 (PC-3 prostate)
O=C1Oc2cc(O)cc(/C=C/c3ccc(O)cc3)c2[C@@]12c1c(O)cc(O)cc1OC2c1cccc(O)c1 (some centres not stated)	65.5 µM	93.5 µM	65 µM	> 100 µM	75.3 µM	> 100 µM	> 100 µM	66.1 µM	> 100 µM	93.2 µM	> 100 µM	–	–	–	–	–	–	–	–	–
CC(C)NC(=O)CN1CCN(c2c(O)c3c(c(O)c2Cl)C(=O)C=CC3=O)CC1	18.6 µM	24.3 µM	2.58 µM	3.47 µM	1.92 µM	3.19 µM	11.3 µM	3.38 µM	12 µM	3.43 µM	4.75 µM	–	–	–	–	–	–	–	–	–
COI1NC(=O)c2ccccc21	> 100 µM	> 100 µM	> 100 µM	> 100 µM	> 100 µM	> 100 µM	> 100 µM	> 100 µM	> 100 µM	> 100 µM	> 100 µM	–	–	–	–	–	–	–	–	–
CCC(=O)Nc1ccc(N2C(=O)C(Cl)C2c2ccc(SC)cc2)cc1 (configuration not stated)	> 100 µM	> 100 µM	> 100 µM	> 100 µM	> 100 µM	> 100 µM	> 100 µM	> 100 µM	> 100 µM	> 100 µM	> 100 µM	–	–	–	–	–	–	–	–	–
COC(=O)C1OC(O[C@H]2CC[C@]3(C)[C@H]4CC=C5[C@@H]6CC(C)(C)CC[C@]6(C(=O)OC6OCC(O)C(O)C6OC6OC(C)C(OC7OCC(O)C(O)C7O)C(O)C6O)CC[C@@]5(C)[C@]4(C)CC[C@H]3C2(C)C)C(O)C(O)C1O (some centres not stated)	33.2 µM and 32.6 µM	35.9 µM and 36.7 µM	30.8 µM and 29.5 µM	27.2 µM and 25.7 µM	30.5 µM and 29 µM	> 100 µM	30 µM and 30.4 µM	33.8 µM and 32.1 µM	33.7 µM and 32 µM	29.3 µM and 33.1 µM	27.6 µM and 29.5 µM	–	–	–	–	–	–	–	–	–
Cc1cc(=O)oc2c(CNC(Cc3ccccc3)C(=O)O)c(O)ccc12 (configuration not stated)	> 100 µM	> 100 µM	> 100 µM	> 100 µM	> 100 µM	> 100 µM	> 100 µM	> 100 µM	> 100 µM	> 100 µM	> 100 µM	–	–	–	–	–	–	–	–	–
C[C@@H]1CC[C@@H]2[C@@H](C1)O[C@@H]([C@H](C)OCc1ccccc1)SC2(C)C	> 100 µM	> 100 µM	> 100 µM	31.5 µM	32.8 µM	82.7 µM	49.2 µM	> 100 µM	> 100 µM	65.5 µM	> 100 µM	–	–	–	–	–	–	–	–	–
CCOC(=O)c1c(N2CCOCC2)[nH]c(=O)c(C(c2ccco2)c2c(O)c(C(=O)OCC)c(N3CCOCC3)[nH]c2=O)c1O	> 100 µM	> 100 µM	> 100 µM	> 100 µM	> 100 µM	> 100 µM	> 100 µM	> 100 µM	> 100 µM	> 100 µM	> 100 µM	–	–	–	–	–	–	–	–	–
O=[N+]([O-])c1cc(-c2nc(-c3ccccc3)c(-c3ccccc3)[nH]2)c(O)c([N+](=O)[O-])c1	43.4 µM	40.6 µM	35.8 µM	72.9 µM	49.1 µM	33.6 µM	60 µM	95.3 µM	58.9 µM	> 100 µM	44.3 µM	–	–	–	–	–	–	–	–	–
CC(=O)OCc1ccc2oc(=O)c(C(=O)Oc3ccccc3)cc2c1	> 100 µM	> 100 µM	> 100 µM	> 100 µM	> 100 µM	50 µM	> 100 µM	> 100 µM	> 100 µM	> 100 µM	34.5 µM	–	–	–	–	–	–	–	–	–
COC(=O)c1ccccc1C1CN=NC12Cc1cc(C)ccc1C2=O (configuration not stated)	> 100 µM	> 100 µM	> 100 µM	75.4 µM	> 100 µM	> 100 µM	> 100 µM	> 100 µM	> 100 µM	> 100 µM	> 100 µM	–	–	–	–	–	–	–	–	–
Cc1ccc(S(=O)(=O)NNCNC(=O)c2ccccc2)cc1	> 100 µM	> 100 µM	> 100 µM	> 100 µM	> 100 µM	> 100 µM	> 100 µM	> 100 µM	> 100 µM	> 100 µM	> 100 µM	–	–	–	–	–	–	–	–	–
COc1ccc(C(=O)/C=C/c2cc(O)c(O)c(F)c2F)c(OC)c1	92.7 µM	98.1 µM	> 100 µM	49.1 µM	> 100 µM	36.6 µM	79.5 µM	82.9 µM	> 100 µM	80.3 µM	40.6 µM	–	–	–	–	–	–	–	–	–
CCCCCCCCCCCCCCCCCCN(C)CC(COP(=O)([O-])OCC[N+](C)(C)C)OC (configuration not stated)	28.4 µM	27.4 µM	15 µM	> 62.3 µM	26 µM	23.5 µM	15.6 µM	97 µM	48.2 µM	> 100 µM	32.9 µM	–	–	–	–	–	–	–	–	–
CNC(=O)CCC(NC(=O)OC(C)(C)C)C(=O)NC(Cc1ccc([N+](=O)[O-])cc1)C(=O)NCC(=O)NC (configuration not stated) (Boc-Glu(NHMe)-[Phe(4-NO2)]-Gly-NHMe; configuration not given here)	> 100 µM	> 100 µM	> 100 µM	> 100 µM	> 100 µM	> 100 µM	> 100 µM	> 100 µM	> 100 µM	> 100 µM	> 100 µM	–	–	–	–	–	–	–	–	–
Nn1c(Cc2ccc([N+](=O)[O-])cc2)n[nH]c1=O	> 100 µM	> 100 µM	> 100 µM	> 100 µM	> 100 µM	> 100 µM	> 100 µM	> 100 µM	> 100 µM	> 100 µM	> 100 µM	–	–	–	–	–	–	–	–	–
COc1cc(/C=c2\sc3n(c2=O)C(c2ccc(Cl)cc2)C2=C(CCCC2C)N=3)cc(OC)c1OC (configuration not stated)	> 100 µM	> 100 µM	> 100 µM	> 100 µM	> 100 µM	> 100 µM	> 100 µM	> 100 µM	> 100 µM	> 100 µM	> 100 µM	–	–	–	–	–	–	–	–	–
CCCCCCCCCCCCC(O)[C@H]1CC[C@H](C(O)CCCCCC(=O)CCCCC2CC(C(C)=O)C(=O)O2)O1 (some centres not stated)	26.6 µM	28 µM	> 53.5 µM	> 51.6 µM	21.6 µM	> 70.9 µM	59.3 µM	35.6 µM	54.8 µM	23.2 µM	28.1 µM	2.96 µM	1.38 µM	1.87 µM	6.51 µM	7.11 µM	1.92 µM	3.24 µM	7.67 µM	3.55 µM
